Assay results: patent US20210324442A1, “In vitro Transcription-Translation Metabolic Networks to Measure Quantity or Activity of Enzymes” (priority 2020, published 2021)
pEC50: −log10 of the molar value.

Experiments:
[1] = target: T1, phosphoenolpyruvate carboxylase (Escherichia coli, UniProt P00864); experiment: CFPS yield with raised initial Asp; type: biochemical, E. coli; details: 12 mM Asp compared with conventional 2 mM Asp, one-hour reaction
T1 construct: many enzymes which likely retain activity in the lysate-based CFPS reactions consume precious ATP superfluously; endogenous in cells; host or cells: E. coli BL21 Star (DE3) cell extract (lysate)
Source text: The metabolic engineering approach presented in this work may also be useful for modulating protein expression yield or other desired products from cell-free reactions. Indeed, many enzymes which likely retain activity in the lysate-based CFPS reactions consume precious ATP superfluously. For example, GLNS, which is inhibited in this work, consumes ATP in the process of synthesizing Gln. […] Indeed, during the process of completing the work described herein, we learned that phosphoenolpyruvate carboxylase circumvents the production of ATP from PEP, and that its inhibition might improve CFPS performance. Accordingly, we identified Asp as an inhibitor of this enzyme and observed that CFPS initiated with 12 mM Asp compared with the conventional 2 mM Asp increased CFPS yield by 38% over a one-hour reaction (FIG. 8).
(§1) Gln was omitted from Gln-sensing reactions. […] Results were obtained after 60 minutes.

[2] = target: T2, E. coli ASNase (Escherichia coli, UniProt P00805); experiment: CFPS reactions producing GFP in the presence of E. coli ASNase and ASP; type: biochemical; details: 1.54 IU/mL ASNase + 6.5 mM ASP vs 1.54 IU/mL ASNase
T2 construct: purchased
Method: In FIG. 8, CFPS reactions producing GFP in the presence of E. coli ASNase and ASP. Reported conditions include 0 IU/mL ASNase (no ASNase added), 1.54 IU/mL ASNase, and 1.54 IU/mL ASNase+6.5 mM ASP. […] No plasmid (NP) control tests for the impact of CFPS machinery and possible reaction products if added to a CFPS reaction producing GFP. As such, for the NP control 5 μL of a cellfree reaction product (where no plasmid was added such that no protein expression was templated) was added to a second CFPS reaction producing GFP. […] Error bars represent one standard deviation for n=2 CFPS reactions.

[3] = target: glutamine synthetase (GLNS) (Escherichia coli, UniProt P0A9C5)
Method: Example 2: Cell-free protein synthesis reactions were formulated in 96-well plates with the following specifications: 25% (v/v) cell extract, 12 nM pY71-sfGFP^37, 10-20 mM magnesium glutamate (concentration adjusted for optimal protein yield), 1 mM 1,4-diaminobutane, 1.5 mM spermidine, 40 mM phosphoenolpyruvate, 10 mM ammonium glutamate, 175 mM potassium glutamate, 2.7 mM potassium oxalate, 0.33 mM nicotinamide adenine dinucleotide, 0.27 mM coenzyme A, 1.2 mM ATP, 0.86 mM CTP, 0.86 mM GTP, 0.86 mM UTP, 0.17 mM folinic acid, 6 mM aspartate, 6 mM asparagine, and 2 mM of the 16 remaining proteinogenic amino acids. Gln was omitted from Gln-sensing reactions. For reactions containing human serum (Gemini Bio Products, Sacramento, Calif.), murine RNAse inhibitor (New England BioLabs, Ipswich MA) was added to a final concentration of 0.8 U/μL CFPS. Reactions were incubated at 37° C. in a BioTek SynergyMX plate reader, shaken for 30 seconds, and analyzed for fluorescence every 4-6 minutes at 480/510 nm excitation/emission wavelengths. Results were obtained after 60 minutes. Assay signal strength was calculated as the ratio of GFP RFU at saturating Gln concentrations to the GFP RFU at 0 μM Gln.

[4] = test system: E. coli-based CFPS reactions producing GFP; experiment: CFPS Gln sensor assay, aqueous samples (GFP reporter); type: biochemical; details: 70 mM MSO, Gln omitted as reagent, 1 hr, n=2, read-out: EC50 value (Hill equation fit of GFP response)
Method: Reactions omitted Gln as a reagent but included 70 mM MSO. Aqueous samples of known Gln concentrations were added to the CFPS reaction. On the graph, the x-axis represents the final concentration of Gln in the CFPS reaction (ranging from 0 to 2400 μM). Each data point represents a CFPS reaction after 1 hr with n=2 at each Gln concentration. […] The inset plots linear regression of the data. The solid blue line represents the fit, solid red bands represent the 95% confidence of fit, and dashed black bands represent the 95% confidence range for a single-point prediction.
Example 1: E. coli cell extract containing bacteriophage T7 RNA polymerase was prepared as previously described. Briefly, 5 mL overnight culture of BL21 Star™ (DE3) was added to 100 mL 2xYT. When OD600 reached ˜2.0, culture was transferred to 900 mL 2xYT. 1 L cultures were induced with 1 mM IPTG at OD600 0.4-0.6 and harvested at OD600 ˜2.5. All bacterial cultures were incubated at 37° C. and 280 RPM. Cells were homogenized with three passes at 21000 psi using the EmulsiflexB15 French press homogenizer (Avestin, Ottawa, Calif.) and centrifuged at 12000 RCF for 10 min. Clarified lysate was then incubated at 37° C. and 280 RPM for 30 min. Cell extract was dialyzed using 14 kDa MW cut-off cellulose membrane tubing (MilliporeSigma, Billerica, Mass.) for 4 hr at 4° C. immediately following incubation at 37° C. […]

[5] = test system: E. coli-based CFPS reactions producing GFP; experiment: CFPS Gln sensor assay in the presence of human serum; type: biochemical; details: 70 mM MSO, RNAse inhibitor, 14% (v/v) human serum, 1 hr, n=2; read-out: EC50 value (Hill equation fit of GFP response)
Method: Reactions omitted Gln as a reagent but contained 70 mM MSO, RNAse inhibitor, and 14% (v/v) human serum with increasing Gln concentrations. The x-axis represents the corresponding Gln concentration in the CFPS reaction. Each data point represents a CFPS reaction after 1 hr with n=2 at each CFPS Gln concentration. […] Solid blue line represents the fit, solid red bands represent the 95% confidence of fit, and dashed black bands represent the 95% confidence range for a single-point prediction.
Example 1: E. coli cell extract containing bacteriophage T7 RNA polymerase was prepared as previously described. Briefly, 5 mL overnight culture of BL21 Star™ (DE3) was added to 100 mL 2xYT. When OD600 reached ˜2.0, culture was transferred to 900 mL 2xYT. 1 L cultures were induced with 1 mM IPTG at OD600 0.4-0.6 and harvested at OD600 ˜2.5. All bacterial cultures were incubated at 37° C. and 280 RPM. Cells were homogenized with three passes at 21000 psi using the EmulsiflexB15 French press homogenizer (Avestin, Ottawa, Calif.) and centrifuged at 12000 RCF for 10 min. Clarified lysate was then incubated at 37° C. and 280 RPM for 30 min. Cell extract was dialyzed using 14 kDa MW cut-off cellulose membrane tubing (MilliporeSigma, Billerica, Mass.) for 4 hr at 4° C. immediately following incubation at 37° C.
as §1

glutamine synthetase (GLNS), sequence (P0A9C5 2-469 limits assumed): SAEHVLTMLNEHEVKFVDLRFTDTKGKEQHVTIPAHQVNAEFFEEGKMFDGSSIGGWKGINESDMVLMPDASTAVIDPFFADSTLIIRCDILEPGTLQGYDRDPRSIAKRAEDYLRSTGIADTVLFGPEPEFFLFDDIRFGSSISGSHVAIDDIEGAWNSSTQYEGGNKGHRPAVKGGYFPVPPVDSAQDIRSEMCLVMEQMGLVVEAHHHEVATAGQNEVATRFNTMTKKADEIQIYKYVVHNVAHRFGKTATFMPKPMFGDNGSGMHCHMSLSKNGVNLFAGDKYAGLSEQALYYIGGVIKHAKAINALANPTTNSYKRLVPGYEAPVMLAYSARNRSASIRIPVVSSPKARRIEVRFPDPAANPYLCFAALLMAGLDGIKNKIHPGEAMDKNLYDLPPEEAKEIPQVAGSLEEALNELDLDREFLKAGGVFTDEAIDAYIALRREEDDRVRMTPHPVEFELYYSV
T2 sequence (P00805 23-348): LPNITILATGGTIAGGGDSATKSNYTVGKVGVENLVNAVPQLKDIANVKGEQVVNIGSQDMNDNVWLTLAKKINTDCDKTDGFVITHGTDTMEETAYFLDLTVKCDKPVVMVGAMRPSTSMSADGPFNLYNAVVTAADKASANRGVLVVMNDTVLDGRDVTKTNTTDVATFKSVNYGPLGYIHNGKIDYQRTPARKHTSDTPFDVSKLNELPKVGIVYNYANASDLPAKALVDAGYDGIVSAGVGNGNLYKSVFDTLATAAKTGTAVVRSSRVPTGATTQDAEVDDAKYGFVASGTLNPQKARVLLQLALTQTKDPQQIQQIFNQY
T1 sequence (P00864 whole entry): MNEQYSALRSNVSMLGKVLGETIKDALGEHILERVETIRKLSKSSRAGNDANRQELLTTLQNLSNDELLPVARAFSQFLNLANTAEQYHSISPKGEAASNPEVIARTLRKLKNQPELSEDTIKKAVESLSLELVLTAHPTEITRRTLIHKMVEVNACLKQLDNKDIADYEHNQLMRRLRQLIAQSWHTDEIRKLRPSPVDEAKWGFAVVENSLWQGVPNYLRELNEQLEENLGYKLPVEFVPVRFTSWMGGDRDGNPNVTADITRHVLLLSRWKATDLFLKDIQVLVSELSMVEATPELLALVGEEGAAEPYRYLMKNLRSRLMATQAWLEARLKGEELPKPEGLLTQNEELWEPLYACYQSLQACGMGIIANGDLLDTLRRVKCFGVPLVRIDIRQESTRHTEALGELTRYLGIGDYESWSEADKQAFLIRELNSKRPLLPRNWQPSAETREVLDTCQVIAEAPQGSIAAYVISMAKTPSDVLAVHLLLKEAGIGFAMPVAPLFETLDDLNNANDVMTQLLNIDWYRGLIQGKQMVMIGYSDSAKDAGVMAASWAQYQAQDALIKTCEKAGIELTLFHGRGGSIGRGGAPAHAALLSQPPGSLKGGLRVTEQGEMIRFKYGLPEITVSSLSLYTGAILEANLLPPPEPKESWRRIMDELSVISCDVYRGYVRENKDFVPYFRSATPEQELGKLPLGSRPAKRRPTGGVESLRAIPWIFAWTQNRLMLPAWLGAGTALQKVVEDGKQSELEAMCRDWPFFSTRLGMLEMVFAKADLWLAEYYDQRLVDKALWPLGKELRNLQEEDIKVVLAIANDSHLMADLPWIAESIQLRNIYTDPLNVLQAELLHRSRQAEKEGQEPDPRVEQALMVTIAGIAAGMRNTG

**Q.** What does the source list for `N[C@@H](CC(=O)O)C(=O)O` [Asp, L-aspartate]?
**A.** increase of CFPS yield [1]: 38%; effect of ASP supplementation on ASNase activity [2]: inhibitory effect

**Q.** How did the “effect on CFPS expression yield” value ([3]; concentrations up to 80 mM in the presence of 2 mM Gln) turn out when `CS(=N)(=O)CC[C@H](N)C(=O)O` (stereo partly drawn) [MSO, Methionine sulfoximine] was run?
**A.** little effect

**Q.** And the “signal-to-noise ratio of the assay” value ([3]; increased linearly with increasing MSO concentration up to 70 μM)?
**A.** ~10

**Q.** Which results are given for `NC(=O)CC[C@H](N)C(=O)O` [Gln, L-glutamine]?
**A.** pEC50 [4]: 3.81; pEC50 [5]: 4.00
